Data published in patent US20070027175A1, “Antineoplastic activities of ellipticine and its derivatives” (priority 2005, published 2007).
Like-named read-outs stand apart in the source and are kept apart here.

Experiments:
NCI-60 cancer panel = details: average across the cell lines of the concentration at which growth is inhibited 50%; unit in the High Conc. footnote; cited from earlier work
U266 myeloma cell line = system: U266 myeloma cell line; parameters: cell viability (CellTiter-Glo luminescent assay): dose or concentration left out as unconfirmed; details: U266
Description: (§1) The dosage of each derivative was set at 2, 0.2 and 0.02 mM. A cell culture medium control and 0.5% DMSO control was maintained in each experiment. The cell viability was tested each day over a period of five days using the CellTiter-Glo luminescent cell viability assay kit from Promega Co.
U266 cell line was one of 12 myeloma cell lines used in screening of anti-myeloma agents. In FIG. 10A, cells were treated with 14 ellipticine derivatives (0.5 mM) obtained from the DTP; control cells were untreated. Ellipticine derivatives are coded with NSC identifiers. For 5 days, cell viability was measured every 24 hours using CellTiter-Glo Luminescent Assay. […] In FIG. 10B, U266 cells, along with six other myeloma cell lines, were co-cultured in direct contact with human fetal bone mesenchymal cells and treated with EPED3 (0.5 mM and 2 mM) or Velcade (0.5 mM); control cells were untreated. Cell proliferation was assessed by MTT assay every 24 hours for 5 days. […] Error bars indicate standard deviation.
(§2) Cell Titer-Glo luminescent cell viability assay kit from Promega Co (Madison, Wis.) was used to determine cell growth inhibition by the various compounds tested. The kit determines cell viability by quantifying the amount of ATP present in the cell culture medium. Presence of ATP signals the presence of metabolically active cells (3). The intensity of luminescence was measured by a computerized luminometer (Promega, Co. Madison, Wis.). Each well was read five times within 30 minutes of adding Cell Titer-Glo reagent mixture.
(§3) Cells were contacted with the antineoplastic agents in ninety six well culture plates. The concentration of each neoplastic agent was maintained a constant. A cell culture medium control and 0.5% DMSO control were maintained in each set of experiments. The cell viability was tested every day using the CellTiter-Glo luminescent cell viability kit from Promega Co. (Madison, Wis.) for a period of five days.

Ark myeloma cell line = assay: CellTiter-Glo luminescent cell viability assay, Ark; type: cell-based, human; parameters: unit of the concentration uncertain
Description: as §1, §2, §3

[1] = system: RPMI8226 myeloma cell line; assay: CellTiter-Glo luminescent cell viability assay, RPMI8226; type: cell-based, human; parameters: unit of the concentration uncertain
Description: as §1
Cell Titer-Glo luminescent cell viability assay kit from Promega Co (Madison, Wis.) was used to determine cell growth inhibition by the various compounds tested. The kit determines cell viability by quantifying the amount of ATP present in the cell culture medium. Presence of ATP signals the presence of metabolically active cells (3). The intensity of luminescence was measured by a computerized luminometer (Promega, Co. Madison, Wis.). Each well was read five times within 30 minutes of adding Cell Titer-Glo reagent mixture. […]

CAG myeloma cell line = assay: CellTiter-Glo luminescent cell viability assay, CAG; type: cell-based, human; parameters: unit of the concentration uncertain
Description: as §1, §2, §3

[2] = system: myeloma cell lines ARK, KMS11, RPMI 8226, and U266; assay: In vitro screening of DTP compounds on myeloma cell lines (CellTiter-Glo); type: cell-based, human
Description: Eight myeloma cell lines were contacted with the antineoplastic agents to be tested in ninety six well culture plates. […]
Myeloma cell lines were maintained at >90% viability at 37° C. and 5% CO2. Cells were diluted to 20,000 cells/ml in fresh medium. A 50-μl aliquot of cell suspension was seeded in 96-well tissue culture plates to final cell counts of 1,000 cells/well. All compounds obtained from NCI's Developmental Therapeutics Program (DTP compounds) were dissolved in 100% dimethylsulfoxide (DMSO) (Sigma-Aldrich, St. Louis, Mo.) at 1 mg/ml and further diluted in fresh medium to 1 μg/ml. Each compound (50-μl aliquots) was distributed to a well containing 1,000 myeloma cells. Each plate included controls with addition of only medium or only DMSO (0.5% final concentration). All experiments were conducted in triplicate.
Using CellTiter-Glo Luminescent Assay kit (Promega, Madison, Wis.) according to manufacturer's instructions, cell viability was assayed every 24 hours after addition of DTP compound for 5 days. Briefly, the CellTiter-Glo substrate was dissolved in buffer, and 100 μl was added to each well. […] The statistic sampling distribution for each compound per cell line was based on sample of n=15 measurements.
Other ellipticine derivatives from the DTP (at 0.5 mM final concentration) were used to screen the same four myeloma cell lines.

[3] = system: 12 myeloma cell lines (Ark, BW288, CAG, Delta47, DF15, JJN3, kms11, L363, opm2, RPMI8226, U266 and XG1); assay: Comparative study with existing anti-myeloma drugs (CellTiter-Glo); type: cell-based, human
Excerpt: The results obtained from these controls are pooled together in the figure (●). The dose of each compound was set […].
Comparative study of NSC 338258 with existing anti-myeloma drugs Myeloma cell lines were exposed to NSC 338258 and existing anti myeloma drugs, Adriamycin® (Doxorubicin Hydrochloride) and Etoposide (VP-16-213) in ninety six well culture plates. The concentration of each compound was set […]. […] The cell growth was near zero in the following days (day 4 onwards; FIG. 6). It was also observed that 12 myeloma cell lines (Ark, BW288, CAG, Delta47, DF15, JJN3, kms11, L363, opm2, RPMI8226, U266 and XG1) responded to the same dosage (0.2 μM) of NSC 338258, VP-16-213 and Adriamycin in 5 days.

COc1ccc2[nH]c3c(C)c4ccncc4c(C)c3c2c1 [NSC 69187, ellipticine-9-methoxy-]
Mean GI50 (NCI-60 cancer panel): −6.35 log^10 molar | cell viability (CellTiter-Glo luminescent assay) (U266 myeloma cell line; 0.02, Day 1): 30,188 | cell viability (CellTiter-Glo luminescent assay) (U266 myeloma cell line; 0.02, Day 2): 46,889 | cell viability (CellTiter-Glo luminescent assay) (U266 myeloma cell line; 0.02, Day 3): 63,864 | cell viability (CellTiter-Glo luminescent assay) (U266 myeloma cell line; 0.02, Day 4): 112,366 | cell viability (CellTiter-Glo luminescent assay) (U266 myeloma cell line; 0.02, Day 5): 145,073 | cell viability (CellTiter-Glo luminescent assay) (U266 myeloma cell line; 0.2, Day 1): 24,729 | cell viability (CellTiter-Glo luminescent assay) (U266 myeloma cell line; 0.2, Day 2): 38,799 | cell viability (CellTiter-Glo luminescent assay) (U266 myeloma cell line; 0.2, Day 3): 45,134 | cell viability (CellTiter-Glo luminescent assay) (U266 myeloma cell line; 0.2, Day 4): 69,867 | cell viability (CellTiter-Glo luminescent assay) (U266 myeloma cell line; 0.2, Day 5): 90,555 | cell viability (CellTiter-Glo luminescent assay) (U266 myeloma cell line; 2, Day 1): 7,818 | cell viability (CellTiter-Glo luminescent assay) (U266 myeloma cell line; 2, Day 2): 3,633 | cell viability (CellTiter-Glo luminescent assay) (U266 myeloma cell line; 2, Day 3): 1,048 | cell viability (CellTiter-Glo luminescent assay) (U266 myeloma cell line; 2, Day 4): 628 | cell viability (CellTiter-Glo luminescent assay) (U266 myeloma cell line; 2, Day 5): 144 | cell viability (CellTiter-Glo luminescent assay) (Ark myeloma cell line; 0.02 (unit uncertain), Day 1): 119,617 | cell viability (CellTiter-Glo luminescent assay) (Ark myeloma cell line; 0.02 (unit uncertain), Day 2): 244,779 | cell viability (CellTiter-Glo luminescent assay) (Ark myeloma cell line; 0.02 (unit uncertain), Day 3): 371,712 | cell viability (CellTiter-Glo luminescent assay) (Ark myeloma cell line; 0.02 (unit uncertain), Day 4): 824,251 | cell viability (CellTiter-Glo luminescent assay) (Ark myeloma cell line; 0.02 (unit uncertain), Day 5): 1,347,042 | cell viability (CellTiter-Glo luminescent assay) (Ark myeloma cell line; 0.2 (unit uncertain), Day 1): 92,678 | cell viability (CellTiter-Glo luminescent assay) (Ark myeloma cell line; 0.2 (unit uncertain), Day 2): 208,050 | cell viability (CellTiter-Glo luminescent assay) (Ark myeloma cell line; 0.2 (unit uncertain), Day 3): 256,789 | cell viability (CellTiter-Glo luminescent assay) (Ark myeloma cell line; 0.2 (unit uncertain), Day 4): 506,725 | cell viability (CellTiter-Glo luminescent assay) (Ark myeloma cell line; 0.2 (unit uncertain), Day 5): 826,957 | cell viability (CellTiter-Glo luminescent assay) (Ark myeloma cell line; 2 (unit uncertain), Day 1): 14,932 | cell viability (CellTiter-Glo luminescent assay) (Ark myeloma cell line; 2 (unit uncertain), Day 2): 815 | cell viability (CellTiter-Glo luminescent assay) (Ark myeloma cell line; 2 (unit uncertain), Day 3): 289 | cell viability (CellTiter-Glo luminescent assay) (Ark myeloma cell line; 2 (unit uncertain), Day 4): 463 | cell viability (CellTiter-Glo luminescent assay) (Ark myeloma cell line; 2 (unit uncertain), Day 5): 375 | cell viability (CellTiter-Glo luminescent assay) ([1]; 0.02 (unit uncertain), Day 1): 103,366 | cell viability (CellTiter-Glo luminescent assay) ([1]; 0.02 (unit uncertain), Day 2): 238,331 | cell viability (CellTiter-Glo luminescent assay) ([1]; 0.02 (unit uncertain), Day 3): 411,171 | cell viability (CellTiter-Glo luminescent assay) ([1]; 0.02 (unit uncertain), Day 4): 869,367 | cell viability (CellTiter-Glo luminescent assay) ([1]; 0.02 (unit uncertain), Day 5): 1,011,078 | cell viability (CellTiter-Glo luminescent assay) ([1]; 0.2 (unit uncertain), Day 1): 82,834 | cell viability (CellTiter-Glo luminescent assay) ([1]; 0.2 (unit uncertain), Day 2): 148,198 | cell viability (CellTiter-Glo luminescent assay) ([1]; 0.2 (unit uncertain), Day 3): 216,515 | cell viability (CellTiter-Glo luminescent assay) ([1]; 0.2 (unit uncertain), Day 4): 311,641 | cell viability (CellTiter-Glo luminescent assay) ([1]; 0.2 (unit uncertain), Day 5): 379,475 | cell viability (CellTiter-Glo luminescent assay) ([1]; 2 (unit uncertain), Day 1): 21,912 | cell viability (CellTiter-Glo luminescent assay) ([1]; 2 (unit uncertain), Day 2): 2,688 | cell viability (CellTiter-Glo luminescent assay) ([1]; 2 (unit uncertain), Day 3): 820 | cell viability (CellTiter-Glo luminescent assay) ([1]; 2 (unit uncertain), Day 4): 601 | cell viability (CellTiter-Glo luminescent assay) ([1]; 2 (unit uncertain), Day 5): 213 | cell viability (CellTiter-Glo luminescent assay) (CAG myeloma cell line; 0.02 (unit uncertain), Day 1): 188,754 | cell viability (CellTiter-Glo luminescent assay) (CAG myeloma cell line; 0.02 (unit uncertain), Day 2): 552,402 | cell viability (CellTiter-Glo luminescent assay) (CAG myeloma cell line; 0.02 (unit uncertain), Day 3): 805,110 | cell viability (CellTiter-Glo luminescent assay) (CAG myeloma cell line; 0.02 (unit uncertain), Day 4): 2,582,505 | cell viability (CellTiter-Glo luminescent assay) (CAG myeloma cell line; 0.02 (unit uncertain), Day 5): 4,299,468 | cell viability (CellTiter-Glo luminescent assay) (CAG myeloma cell line; 0.2 (unit uncertain), Day 1): 164,436 | cell viability (CellTiter-Glo luminescent assay) (CAG myeloma cell line; 0.2 (unit uncertain), Day 2): 358,735 | cell viability (CellTiter-Glo luminescent assay) (CAG myeloma cell line; 0.2 (unit uncertain), Day 3): 511,726 | cell viability (CellTiter-Glo luminescent assay) (CAG myeloma cell line; 0.2 (unit uncertain), Day 4): 1,187,656 | cell viability (CellTiter-Glo luminescent assay) (CAG myeloma cell line; 0.2 (unit uncertain), Day 5): 1,595,148 | cell viability (CellTiter-Glo luminescent assay) (CAG myeloma cell line; 2 (unit uncertain), Day 1): 88,285 | cell viability (CellTiter-Glo luminescent assay) (CAG myeloma cell line; 2 (unit uncertain), Day 2): 58,508 | cell viability (CellTiter-Glo luminescent assay) (CAG myeloma cell line; 2 (unit uncertain), Day 3): 17,247 | cell viability (CellTiter-Glo luminescent assay) (CAG myeloma cell line; 2 (unit uncertain), Day 4): 9,111 | cell viability (CellTiter-Glo luminescent assay) (CAG myeloma cell line; 2 (unit uncertain), Day 5): 1,745 | inhibition of cell viability in four myeloma cell lines ([2]; 0.5 mg/ml, every 24 hours over 5 days): most significantly inhibited cell viability | effective invitro dosage (cell growth inhibition) ([2]; myeloma cell lines): 0.2 µM

COc1cc([C@@H]2c3cc4c(cc3[C@@H](O[C@@H]3O[C@@H]5CO[C@@H](C)O[C@H]5[C@H](O)[C@H]3O)[C@H]3COC(=O)[C@H]23)OCO4)cc(OC)c1O [VP-16-213, Etoposide]
response of 12 myeloma cell lines ([3]; 0.2 μM, in 5 days): responded | speed of response compared with EPED3 ([3]; myeloma cell lines (n=12), regardless of the concentration): much more delayed response
